Holding throughout (type): cell-based, human
Test [1] has as its system H9 hESCs. Put plainly: Cardiac differentiation via EBs after CH pretreatment, contracting outgrowths. The conditions noted are these: 0-8 μM CH for three days prior to EB formation; spontaneously-contracting outgrowths. The protocol: Cardiac Differentiation Via EBs: hPS cells were passaged onto MEFs (˜13,000 cells/cm^2) and cultured in hESC medium for 2 days followed by another 3 days in hESC medium supplemented with BIO (Sigma) or CHIR99021 (Selleck). To form EBs, hPS cell aggregates generated by […] were cultured in low-attachment plates overnight in RPMI plus 20% KnockOut serum replacer. The next day, the EBs were cultured in EB20 (RPMI plus 20% FBS) for 4 days in suspension. EBs were then plated onto 0.1% gelatin-coated 6-well culture plates at 50-100 EBs/well, and cultured in EB20 medium. After 10 days of differentiation, the FBS concentration was reduced to 2% EB2 (RPMI plus 2% FBS). The number of contracting EBs was visually assessed using a microscope with a 37° C. heated stage. […] Undifferentiated H9 hESCs were cultured in the presence of 0-8 μM CH for three days prior to EB formation. EBs were cultured in suspension for 4 days before transferring to 0.1% gelatin coated plates. […] The inventors also applied the GSK3 inhibitors CH and BIO to undifferentiated H9 hESCs three days prior to directed differentiation to cardiomyocytes via Activin A and BMP4.

Test [2] has as its system 19-9-11 shcat-2 and scramble lines. Put plainly: RT-PCR/qPCR gene expression in CH-treated 19-9-11 shcat-2 and scramble lines. The method, then:
RT-PCR and Quantitative RT-PCR: Total RNA was prepared with the RNeasy mini kit (QIAGEN) and treated with DNase (QIAGEN). 1 μg RNA was reverse transcribed into cDNA via Oligo (dT) with Superscript III Reverse Transcriptase (Invitrogen). Real-time quantitative PCR was done in triplicate with iQ SYBR Green SuperMix (Bio-Rad). RT-PCR was done with Gotaq Master Mix (Promega) and then subjected to 2% agarose gel electrophoresis. ACTB was used as an endogenous control. To test whether induction of cardiomyocyte differentiation by GSK3 inhibitors requires β-catenin, the inventors treated the shcat-2 and scramble 19-9-11 lines with CH in mTeSR1 medium. While the shcat-2 line maintained an undifferentiated morphology, the scramble line appeared to undergo differentiation (FIG. 2E), similar to non-transduced lines treated with CH (FIGS. 1B and 2B). Induction of differentiation following CH treatment in the scramble control was further indicated by diminished SOX2 and NANOG expression at day 4 (FIG. 3C). […] After 4 days of CH treatment in mTeSR1, the percentage of cells expressing Oct4 decreased to 61% in the scramble line, while 98% of the shcat-2 cells expressed Oct4 (FIG. 3D). […] To better understand early mesoderm induction via GSK3 inhibition, the inventors analyzed expression of the early mesoderm gene T in scramble and shcat-2 19-9-11 lines. As CH concentration increased, the ratio of T expression in scramble to the shcat-2 line increased (FIG. 3E). Less than 2% of shcat-2 cells expressed brachyury upon exposure to different concentrations of CH treatment for 4 days.

In the next test the test system is H9-7TGP cells. Put plainly: Immunofluorescent analysis of CH-induced H9-7TGP GFP+ cells. The note with it: 12 μM CHIR99021 in mTeSR1 for 4 days. The method, then:
Immunostaining: Cells were fixed with 4% paraformaldehyde for 15 min at room temperature and then stained with primary and secondary antibodies in PBS plus 0.4% Triton X-100 and 5% non-fat dry milk (Bio-Rad). Nuclei were stained with Gold Anti-fade Reagent with DAPI (Invitrogen). An epifluorescence microscope (Leica DM IRB) with a QImaging® Retiga 4000R camera was used for imaging analysis. In order to probe the activation of canonical Wnt/β-catenin signaling during hPS cell specification to cardiomyocytes, the inventors generated a series of promoter-reporter cell lines in H1 and H9 hESC, and 19-9-11 human iPSC lines. These reporter lines, integrated with a lentiviral 7TGP vector, express GFP under control of a consensus TCF/LEF binding sequence promoter which reports β-catenin activation (FIG. 2A) (Fuerer and Nusse, PLoS One 5:e9370 (2010)). […] Approximately 50% of H9-7TGP cells expressed GFP at 4 days post-addition of 15 μM CH.

In test [3] the test system is H9 hESCs. The test can be described thus: Activin A/BMP4 directed cardiac differentiation with GSK3 inhibitor pretreatment, cTnT flow cytometry. The note with it: GSK3 inhibitor (1 μM) 3 days prior to Activin A and BMP4; day 15; average. The protocol:
Cardiac directed differentiation using Activin A and BMP4: hPS cells maintained on Matrigel® in mTeSR1 were dissociated into single cells with Accutase (Invitrogen) at 37° C. for 5 min and then seeded onto a Matrigel®-coated cell culture dish at 100,000 cell/cm^2 in mTeSR1 supplemented with 5 μM ROCK inhibitor (Y-27632, Stemgent) (day −5). Cells were cultured in mTeSR1, changed daily. At day 0, cells were treated with 100 ng/ml Activin A (R&D) in RPMI/B27-insulin. After 24 hr, the medium was changed to RPMI/B27-insulin supplemented with 5 ng/ml BMP4 (R&D) for another 4 days. At day 5, the medium was changed with RPMI/B27-insulin. At day 7 the cells were transferred to RPMI/B27, and medim changed every 3 days. When using GSK3 inhibitors to stimulate differentiation, cells were cultured in mTeSR1 containing BIO or CHIR99021 from day −3 to day 0.
Flow Cytometry: Cells were dissociated into single cells and then fixed with 1% paraformaldehyde for 20 min at room temperature and stained with primary and secondary antibodies in PBS plus 0.1% Triton X-100 and 0.5% BSA. For the cell proliferation assay, a 17-hour pulse of BrdU was performed to identify dividing cardiomyocytes (Zhang et al., Circ. Res. 104, e30-41 (2009)). Data were collected on a FACSCaliber flow cytometer (Beckton Dickinson) and analyzed using FlowJo.
Undifferentiated H9 hESCs were cultured in the presence of 0-8 μM CH for three days prior to EB formation. EBs were cultured in suspension for 4 days before transferring to 0.1% gelatin coated plates. […] The inventors also applied the GSK3 inhibitors CH and BIO to undifferentiated H9 hESCs three days prior to directed differentiation to cardiomyocytes via Activin A and BMP4.
On the technique in general: A flow cytometer gives signals particle by particle.

Data on 1 molecule can be found in patent US9663764B2, “Generation of cardiomyocytes from human pluripotent stem cells” (Wisconsin Alumni Research Foundation, priority 2011, dated 2017).

Turning to `Cc1c[nH]c(-c2cnc(NCCNc3ccc(C#N)cn3)nc2-c2ccc(Cl)cc2Cl)n1` [CH], the “CH concentration at which efficiency of cardiomyocyte differentiation peaked” value with H9 hESCs [1] fell in the range of 2 to 4 µM. For the same molecule, the “expression of mesendoderm and early mesoderm genes MIXL1, GSC, T, WNT3A and MSX1” value in test [2] (12 μM CH for 4 days, scramble versus shcat-2) was “emerged in CH-treated scramble cells but not CH-treated shcat-2 cells”. Also, in test [2] (increasing CH concentration, 2 days, qPCR), the “ratio of T expression in scramble to the shcat-2 line” value is “increased”. The “SOX2 and NANOG expression” value in test [2] (scramble control, CH treatment, day 4) is on record as “diminished”; in test [2] (shcat-2 cells treated with CH), “No significant differences”. The “Oct4, Isl1 and Nkx2.5 expression in CH-induced GFP+ cells” value in the test on H9-7TGP cells is “did not express Oct4, but did express Isl1 and Nkx2.5”. Besides, the cTNT-labeled cells with H9 hESCs [3] is 50%.
